Like-named read-outs stand apart in the source and are kept apart here.
Assays:
Type in all cases: biochemical
JAK3 = biological target: T1, JAK3 (Homo sapiens, UniProt P52333); assay: JAK tyrosine phosphorylation activity, Z'-LYTE FRET kinase assay; settings: catalytic domain recombinant kinase, Tyr6 peptide
T1 construct: 5 μl of catalytic domain recombinant Kinase enzyme+Tyr peptide substrate (Invitrogen, CA); purchased Invitrogen
Method: (§1) JAK and SYK tyrosine phosphorylation activity is measured using the Z'-LYTE™ Technology developed by Invitrogen Corporation (Carlsbad, Calif.). For JAK1, JAK2 and JAK3 the Z'-LYTE™ Kinase Assay Kit-Tyr6 Peptide (part number PV4122) was used. The Z'-LYTE™ biochemical assay employs a fluorescence resonance energy transfer (FRET) coupled-enzyme format and is based on the differential sensitivity of phosphorylated and non-phosphorylated peptides to proteolitic cleavage. The assay uses a synthetic peptide substrate that is labelled with a donor fluorophore (coumarin) and an acceptor fluorophore (fluorescein) that make up a FRET pair. In the primary reaction (the Kinase Reaction), the kinase transfers the γ-phosphate of ATP to a single tyrosine residue on the substrate, while the presence of a kinase inhibitor in the primary reaction suppresses phosphorylation. In the secondary reaction (the Development Reaction), a site-specific protease (the Development Reagent) is added. The development buffer quenches the Kinase Reaction, while the protease recognizes and cleaves non-phosphorylated Z'-LYTE™ peptide substrate. Cleavage disrupts FRET between the donor and acceptor fluorophores on the non-phosphorylated substrate, while uncleaved, phosphorylated substrate maintains FRET.
(§2) To test the ability of candidate molecules to inhibit JAK tyrosine phosphorylation activity, molecules are reconstituted in 100% DMSO and serially diluted 1:10 in polypropylene v-bottom microtiter plates. The candidate molecules are then diluted 1:25 into kinase buffer and 2.5 μl transferred into duplicate wells of a 384 well low volume black microtiter assay plate (Corning, USA). The final DMSO concentration in the assay is 1%. The kinase reaction contains 2.5 μl of a candidate molecule, 5 μl of catalytic domain recombinant Kinase enzyme+Tyr peptide substrate (Invitrogen, CA) and 2.5 μl ATP (Invitrogen, CA). The kinase reaction is allowed to precede for 1 hour at room temperature. The protease reaction is initiated by the addition of 5 μl Development Reagent (Invitrogen, CA). After 1 hour incubation at room temperature the fluorescence is measured using a FlexStation plate reader (Molecular Devices, Sunnyvale, Calif.). The reader settings used are as follows: Fluorescence mode, endpoint, top read, excitation 400 nm, emission 445 nm and 520 nm. Auto Cutoff 435 nm and 515 nm, PMT sensitivity high, 6 reads per well. Inhibition of JAK activity is calculated as the percent phosphorylation of substrate in the presence of inhibitor compared to the percent phosphorylation of substrate in the absence of inhibitor. IC50's were derived using Xlfit 4.3 (IDBS, UK), 4 parameter logistic model 205: Y=(A+((B−A)/(1+((C/x)^D)))).

JAK1 = biological target: T2, JAK1 (Homo sapiens, UniProt P23458); assay: as above; settings: catalytic domain recombinant kinase, Tyr6 peptide; for IC50: read-out: JAK1 IC50 % Inhibition
T2 construct: 5 μl of catalytic domain recombinant Kinase enzyme+Tyr peptide substrate (Invitrogen, CA); purchased Invitrogen
Method: as §1, §2

JAK2 = biological target: T3, JAK2 (Homo sapiens, UniProt O60674); assay: as above; settings: catalytic domain recombinant kinase, Tyr6 peptide
T3 construct: 5 μl of catalytic domain recombinant Kinase enzyme+Tyr peptide substrate (Invitrogen, CA); purchased Invitrogen
Method: as §1, §2

[1] = biological target: T4, full length active recombinant SYK enzyme (Homo sapiens, UniProt P43405); assay: SYK tyrosine phosphorylation activity, LANCE TR-FRET kinase assay; settings: 1 nM SYK, 100 μM ATP, 1 hour at room temperature
T4 construct: full length active recombinant SYK enzyme (Millipore, CA); purchased Millipore
Method: Potency of candidate molecules for inhibiting Syk tyrosine phosphorylation activity is assessed by measuring the ability of a test compound to inhibit Syk-mediated tyrosine phosphorylation of a Syk-specific substrate.
SYK tyrosine phosphorylation activity is measured using the LANCE™ Technology developed by Perkin Elmer Life and Analytical Sciences (Boston, Mass.). LANCE™ refers to homogeneous time resolved fluorometry applications using techniques such as time-resolved fluorescence resonance energy transfer assay (TR-FRET) (see generally for procedures in Perkin Elmer Application Note—How to Optimize a Tyrosine Kinase Assay Using Time Resolved Fluorescence-Based LANCE Detection, wwww.perkinelmer.com/lifesciences). The assay principle involves detection of a phosphorylated substrate using energy transfer from a phosphospecific europium-labeled antibody to streptavidin-allophycocyanin as an acceptor.
To test the ability of candidate molecules to inhibit SYK tyrosine phosphorylation activity, molecules are reconstituted in 30% DMSO and serially diluted 1:3 with the final dilution containing DMSO in the absence of the candidate molecule. The final DMSO concentration in the assay is 3%. Kinase assays are performed as a two part reaction. The first reaction is a kinase reaction that comprises a candidate molecule, full length active recombinant SYK enzyme (Millipore, CA) and biotin-labeled SYK-specific substrate biotin-[…]-OH. The second reaction involves termination of the kinase reaction and the simultaneous addition of the detection reagents-europium-labeled anti-phosphotyrosine reagent (Eu-W1024-PY100, Perkin Elmer, Boston, Mass.) and Streptavidin-Allophycocyanin detection reagent (SA-APC, Prozyme, CA). The kinase reaction is performed in a black U-bottom 96-well microtitre plate. The final reaction volume is 50 μL and contains a final concentration of 1 nM active SYK enzyme, 550 nM SYK-substrate, and 100 μM ATP diluted in a buffer containing 50 mM Tris pH 7.5, 5 mM MgCl2, and 1 mM DTT. The reaction is allowed to proceed for 1 hour at room temperature. The stop buffer contains 100 mM Tris pH 7.5, 300 mM NaCl2, 20 mM EDTA, 0.02% Brij35, and 0.5% BSA. The detection reagents are added to the reaction mixture at the following dilutions—1:500 for Eu-W1024-PY100 and 1:250 for SA-APC. The kinase reaction is terminated by the addition of 50 μL stop buffer containing the detection reagents. The detection is allowed to proceed for 1 hr at room temperature. Detection of the phosphorolated substrate in the absence and presence of inhibitors is measured in the TR-FRET instrument, Analyst HT (Molecular Probes, Sunnyvale, Calif.) and the condition for measurements are set up using CriterionHost Release 2.0 (Molecular Probes, Sunnyvale, Calif.). The settings used are a follows: excitation 360 nm, emission 665-7.5 nm, beam splitter 350 nm 50/50, flash 100 pulses, delay 60 us, integration 400 us, z-height 2 mm. Inhibition of SYK-tyrosine kinase activity is calculated as the maximum response observed in the presence of inhibitor, compared to that in the absence of inhibitor. IC50s are derived by non-linear regression analysis.

T1 sequence (P52333 822-1111 limits assumed): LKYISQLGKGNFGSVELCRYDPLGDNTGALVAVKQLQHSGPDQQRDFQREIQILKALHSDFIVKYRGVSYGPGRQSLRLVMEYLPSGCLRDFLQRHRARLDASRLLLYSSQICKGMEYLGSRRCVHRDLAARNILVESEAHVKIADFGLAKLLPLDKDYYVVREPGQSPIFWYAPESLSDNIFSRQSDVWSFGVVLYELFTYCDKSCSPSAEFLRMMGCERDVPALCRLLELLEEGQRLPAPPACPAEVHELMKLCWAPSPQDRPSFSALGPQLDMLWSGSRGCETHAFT
T2 sequence (P23458 875-1153 limits assumed): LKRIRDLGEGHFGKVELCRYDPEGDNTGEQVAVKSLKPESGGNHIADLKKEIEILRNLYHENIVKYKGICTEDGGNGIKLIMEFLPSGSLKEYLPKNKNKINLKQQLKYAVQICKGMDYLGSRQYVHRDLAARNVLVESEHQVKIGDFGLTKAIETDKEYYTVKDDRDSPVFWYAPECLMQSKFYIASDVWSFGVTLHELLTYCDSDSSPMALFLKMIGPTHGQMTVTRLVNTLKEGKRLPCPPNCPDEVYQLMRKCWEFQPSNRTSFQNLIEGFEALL
T3 sequence (O60674 849-1124 limits assumed): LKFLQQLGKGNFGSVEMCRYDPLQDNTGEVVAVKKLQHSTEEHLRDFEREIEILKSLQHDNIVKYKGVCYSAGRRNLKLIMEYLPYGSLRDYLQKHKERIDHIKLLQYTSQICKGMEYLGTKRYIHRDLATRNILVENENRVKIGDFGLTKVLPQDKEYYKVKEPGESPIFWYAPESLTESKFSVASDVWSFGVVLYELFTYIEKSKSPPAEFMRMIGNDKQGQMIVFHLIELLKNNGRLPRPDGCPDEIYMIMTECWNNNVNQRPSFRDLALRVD

JAK3 IC50 potency class (JAK3)	JAK1 IC50 potency class (JAK1)	JAK2 IC50 potency class (JAK2)	IC50 [1]	IC50 (JAK1) [µM]	IC50 (JAK3; read-out: JAK3 IC50 % Inhibition) [µM]	IC50 (JAK2; read-out: JAK2 IC50 % Inhibition) [µM]	IC50 ([1]; read-out: Syk IC50 % Inhibition) [µM]	SMILES
++++ (0.01 uM<IC50<0.001 uM)	+++ (0.10 uM<IC50<0.01 uM)	+++ (0.10 uM<IC50<0.01 uM)	+++ (0.10 uM<IC50<0.01 uM)	–	–	–	–	CC(C)N1CCC(c2ccc(Nc3ncc(C(N)=O)c(NC4CC4)n3)cc2)CC1 [Compound 4, 4-(cyclopropylamino)-2-((4-(1-isopropylpiperidin-4-yl)phenyl)amino)pyrimidine-5-carboxamide]
+++ (0.10 uM<IC50<0.01 uM)	+++ (0.10 uM<IC50<0.01 uM)	+++ (0.10 uM<IC50<0.01 uM)	++ (1.0 uM<IC50<0.10 uM)	–	–	–	–	NC(=O)c1cnc(Nc2ccc(C3CCN(c4cccnc4)CC3)cc2)nc1NC1CC1 [Compound 17, 4-(cyclopropylamino)-2-((4-(1-(pyridin-3-yl)piperidin-4-yl)phenyl)amino)pyrimidine-5-carboxamide]
++++ (0.01 uM<IC50<0.001 uM)	+++ (0.10 uM<IC50<0.01 uM)	++++ (0.01 uM<IC50<0.001 uM)	+++ (0.10 uM<IC50<0.01 uM)	–	–	–	–	CC(C)S(=O)(=O)N1CCC(c2ccc(Nc3ncc(C(N)=O)c(NC4CC4)n3)cc2)CC1 [Compound 3, 4-(cyclopropylamino)-2-((4-(1-(isopropylsulfonyl)piperidin-4-yl)phenyl)amino)pyrimidine-5-carboxamide]
++++ (0.01 uM<IC50<0.001 uM)	+++ (0.10 uM<IC50<0.01 uM)	++++ (0.01 uM<IC50<0.001 uM)	+++ (0.10 uM<IC50<0.01 uM)	–	–	–	–	CCC(=O)N1CCC(c2ccc(Nc3ncc(C(N)=O)c(NC4CC4)n3)cc2)CC1 [Compound 7, 4-(cyclopropylamino)-2-((4-(1-propionylpiperidin-4-yl)phenyl)amino)pyrimidine-5-carboxamide]
++++ (0.01 uM<IC50<0.001 uM)	+++ (0.10 uM<IC50<0.01 uM)	+++ (0.10 uM<IC50<0.01 uM)	+++ (0.10 uM<IC50<0.01 uM)	–	–	–	–	COC(=O)N1CCC(c2ccc(Nc3ncc(C(N)=O)c(NC4CC4)n3)cc2)CC1 [Compound 10, methyl 4-(4-((5-carbamoyl-4-(cyclopropylamino)pyrimidin-2-yl)amino)phenyl)piperidine-1-carboxylate]
++++ (0.01 uM<IC50<0.001 uM)	+++ (0.10 uM<IC50<0.01 uM)	++++ (0.01 uM<IC50<0.001 uM)	+++ (0.10 uM<IC50<0.01 uM)	–	–	–	–	N#CCC(=O)N1CCC(c2ccc(Nc3ncc(C(N)=O)c(NC4CC4)n3)cc2)CC1 [Compound 25, 2-((4-(1-(2-cyanoacetyl)piperidin-4-yl)phenyl)amino)-4-(cyclopropylamino)pyrimidine-5-carboxamide]
++++ (0.01 uM<IC50<0.001 uM)	+++ (0.10 uM<IC50<0.01 uM)	+++ (0.10 uM<IC50<0.01 uM)	++ (1.0 uM<IC50<0.10 uM)	–	–	–	–	CN(C)S(=O)(=O)N1CCC(c2ccc(Nc3ncc(C(N)=O)c(NC4CC4)n3)cc2)CC1 [Compound 12, 4-(cyclopropylamino)-2-((4-(1-(N,N-dimethylsulfamoyl)piperidin-4-yl)phenyl)amino)pyrimidine-5-carboxamide]

Further lines, the compound ahead of its results:

SMILES	JAK3 IC50 potency class (JAK3)	JAK1 IC50 potency class (JAK1)	JAK2 IC50 potency class (JAK2)	IC50 [1]	IC50 (JAK1) [µM]	IC50 (JAK3; read-out: JAK3 IC50 % Inhibition) [µM]	IC50 (JAK2; read-out: JAK2 IC50 % Inhibition) [µM]	IC50 ([1]; read-out: Syk IC50 % Inhibition) [µM]
NC(=O)c1cnc(Nc2ccc(C3CCNCC3)cc2)cc1NC1CC1 [Compound 63, 4-(cyclopropylamino)-6-((4-(piperidin-4-yl)phenyl)amino)nicotinamide]	++ (1.0 uM<IC50<0.10 uM)	–	++ (1.0 uM<IC50<0.10 uM)	++ (1.0 uM<IC50<0.10 uM)	> 1	–	–	–
CCS(=O)(=O)N1CC=C(c2ccc(Nc3ncc(C(N)=O)c(NC4CC4)n3)cc2)CC1 [Compound 57, 4-(cyclopropylamino)-2-((4-(1-(ethylsulfonyl)-1,2,3,6-tetrahydropyridin-4-yl)phenyl)amino)pyrimidine-5-carboxamide]	++++ (0.01 uM<IC50<0.001 uM)	+++ (0.10 uM<IC50<0.01 uM)	+++ (0.10 uM<IC50<0.01 uM)	+++ (0.10 uM<IC50<0.01 uM)	–	–	–	–
CCS(=O)(=O)N1CCN(c2ccc(Nc3ncc(C(N)=O)c(NC4CC4)n3)cc2F)CC1 [Compound 42, 4-(cyclopropylamino)-2-((4-(4-(ethylsulfonyl)piperazin-1-yl)-3-fluorophenyl)amino)pyrimidine-5-carboxamide]	++++ (0.01 uM<IC50<0.001 uM)	+++ (0.10 uM<IC50<0.01 uM)	++++ (0.01 uM<IC50<0.001 uM)	+++ (0.10 uM<IC50<0.01 uM)	–	–	–	–
NC(=O)c1cnc(NC2CC2)cc1Nc1ccc(C2CCNCC2)cc1 [Compound 68, 6-(cyclopropylamino)-4-((4-(piperidin-4-yl)phenyl)amino)nicotinamide]	–	–	–	–	> 1	> 1	> 1	> 1
CCS(=O)(=O)N1CCN(c2ccc(Nc3ncc(C(N)=O)c(NC4CC4)n3)cc2OC)CC1 [Compound 9, 4-(cyclopropylamino)-2-((4-(4-(ethylsulfonyl)piperazin-1-yl)-3-methoxyphenyl)amino)pyrimidine-5-carboxamide]	++++ (0.01 uM<IC50<0.001 uM)	+++ (0.10 uM<IC50<0.01 uM)	++++ (0.01 uM<IC50<0.001 uM)	+++ (0.10 uM<IC50<0.01 uM)	–	–	–	–
NC(=O)c1cnc(Nc2ccc(N3CCOCC3)c(F)c2)nc1NC1CC1 [Compound 54, 4-(cyclopropylamino)-2-((3-fluoro-4-morpholinophenyl)amino)pyrimidine-5-carboxamide]	++++ (0.01 uM<IC50<0.001 uM)	+++ (0.10 uM<IC50<0.01 uM)	++++ (0.01 uM<IC50<0.001 uM)	+++ (0.10 uM<IC50<0.01 uM)	–	–	–	–

From US9676756B2 (PORTOLA PHARMACEUTICALS, INC., priority 2012, dated 2017)
